Like-named read-outs stand apart in the source and are kept apart here.
Tests used:
MCT8 [1] = molecular target: T1, MCT8 (Rattus norvegicus, UniProt Q8K1P8, G227D/I169T/S199P/T171I); assay: Transport kinetics of MCT8-mediated iodothyronine uptake in oocytes (Michaelis-Menten); parameters: dose or concentration left out as unconfirmed; settings: net transport
Description: Apparent Km values were calculated by fitting the plot of uptake rate (v) versus ligand concentration (5) to the Michaelis Menten equation: v=Vmax/(1+Km/S), wherein Vmax is the maximum uptake rate, and Km the Michaelis constant. Calculations were performed using the Slide Write Plus program version 5.01 (Advanced Graphics Software).

rat MCT1 = molecular target: T2, rat MCT1 (Rattus norvegicus, UniProt P53987); settings: data not shown
T2 sequence (P53987 1-494): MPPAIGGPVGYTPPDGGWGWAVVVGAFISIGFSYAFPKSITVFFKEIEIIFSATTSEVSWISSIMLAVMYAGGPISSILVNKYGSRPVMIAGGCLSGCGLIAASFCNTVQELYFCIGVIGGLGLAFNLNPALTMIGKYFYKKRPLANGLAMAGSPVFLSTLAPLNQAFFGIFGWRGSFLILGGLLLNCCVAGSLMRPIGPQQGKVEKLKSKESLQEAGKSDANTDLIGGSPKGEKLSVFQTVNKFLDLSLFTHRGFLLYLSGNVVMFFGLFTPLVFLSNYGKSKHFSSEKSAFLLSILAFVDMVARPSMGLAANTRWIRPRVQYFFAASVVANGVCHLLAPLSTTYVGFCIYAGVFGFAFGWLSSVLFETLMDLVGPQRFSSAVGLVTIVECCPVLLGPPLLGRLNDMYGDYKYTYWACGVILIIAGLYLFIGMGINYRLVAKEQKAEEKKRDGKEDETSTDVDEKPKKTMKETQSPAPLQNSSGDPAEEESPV

MCT8 [2] = molecular target: T1, MCT8; assay: Inhibition of uptake of labeled T4 and T3 in MCT8 cRNA-injected oocytes by putative competitors; assay type: cell-based; parameters: the stop codon of MCT8 was removed by performing PCR using the same sense primer as above; expressed in transfected cells; host or cells: Xenopus laevis oocytes injected with cRNA transcribed from pGEM-HeJuel
Description: (§1) Oocytes were isolated and allowed to recover overnight at 18 C in modified Barth's solution containing 20 IU/ml penicillin and 20 gg/ml streptomycin as described before (23). […] Uninjected or water injected oocytes were used as controls.
Transport measurements in oocytes—Oocytes were washed and preincubated at 18 C in standard uptake solution (100 mM NaCl, 2 mM KCl, 1 mM CaCl2, 1 mM MgCl2, 10 mM HEPES, and 10 mM Tris, pH 7.5). […] The possible Na^+ dependence of transport was tested by preincubation and incubation in Na^+-free uptake solution in which NaCl was replaced by choline chloride. The influence of the temperature on the uptake rate was tested by the incubation of oocytes with uptake solutions at different temperatures between 4 and 37 C. […] The incubation was stopped by aspiration of the medium, and oocytes were washed 4 times at 4 C with standard uptake solution containing 0.1% BSA.

MCT8 [3] = molecular target: T1, MCT8; assay: Transport (uptake) of radioactive ligands by MCT8 expressed in X. laevis oocytes; assay type: cell-based; parameters: the stop codon of MCT8 was removed by performing PCR using the same sense primer as above; expressed in transfected cells; host or cells: Xenopus laevis oocytes injected with cRNA transcribed from pGEM-HeJuel
Description: Xenopus oocytes were isolated and injected with 4.6 ng rat MCTS cRNA. After 3 days, groups of 10 injected or uninjected oocytes were incubated for 60 mm at 25 C with 10 nM radioactive iodothyronines in 0.1 ml medium. Uptake of iodothyronines was determined as previously described (18).
as §1
Transport measurements in oocytes—Oocytes were washed and preincubated at 18 C in standard uptake solution (100 mM NaCl, 2 mM KCl, 1 mM CaCl2, 1 mM MgCl2, 10 mM HEPES, and 10 mM Tris, pH 7.5). Usually, transport was tested by incubation of groups of 5-10 oocytes for 2-60 mm at 25 C with 10 nM [1251]iodothyronines or 10 μM [3H]amino acids in 0.1 ml standard uptake solution. The possible Na^+ dependence of transport was tested by preincubation and incubation in Na^+-free uptake solution in which NaCl was replaced by choline chloride. The influence of the temperature on the uptake rate was tested by the incubation of oocytes with uptake solutions at different temperatures between 4 and 37 C. […] The incubation was stopped by aspiration of the medium, and oocytes were washed 4 times at 4 C with standard uptake solution containing 0.1% BSA.

MCT8 [4] = molecular target: T1, MCT8; assay: as above; assay type: cell-based; parameters: the stop codon of MCT8 was removed by performing PCR using the same sense primer as above; expressed in transfected cells; host or cells: Xenopus laevis oocytes injected with cRNA transcribed from pGEM-HeJuel; settings: 0.23 ng MCT8 cRNA injected; 10 nM ligand, 2 min, 25 C

T1 sequence (Q8K1P8 whole entry I169T/T171I/S199P/G227D): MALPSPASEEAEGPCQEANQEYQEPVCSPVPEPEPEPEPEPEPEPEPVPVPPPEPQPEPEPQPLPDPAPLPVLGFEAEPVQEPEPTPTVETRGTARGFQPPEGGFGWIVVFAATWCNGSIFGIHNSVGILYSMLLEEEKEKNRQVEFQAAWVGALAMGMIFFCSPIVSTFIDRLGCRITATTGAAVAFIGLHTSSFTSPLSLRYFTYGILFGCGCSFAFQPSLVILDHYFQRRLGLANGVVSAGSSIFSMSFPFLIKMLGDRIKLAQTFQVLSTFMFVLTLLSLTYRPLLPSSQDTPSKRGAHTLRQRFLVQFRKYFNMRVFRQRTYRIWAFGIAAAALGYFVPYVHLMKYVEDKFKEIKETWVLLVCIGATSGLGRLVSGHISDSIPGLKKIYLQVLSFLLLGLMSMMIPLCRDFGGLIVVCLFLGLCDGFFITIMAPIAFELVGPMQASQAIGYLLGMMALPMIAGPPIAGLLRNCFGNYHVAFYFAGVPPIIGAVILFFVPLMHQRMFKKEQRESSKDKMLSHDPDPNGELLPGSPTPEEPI

N[C@@H](Cc1cc(I)c(Oc2cc(I)c(O)c(I)c2)c(I)c1)C(=O)O [T4, 3,3′,5,5′-tetraiodothyronine]
Saturability of transport by MCT8 (MCT8 [1]): saturable | Transport in rat MCT1 cRNA-injected oocytes compared to control oocytes (in words) (rat MCT1): no additional uptake | inhibition at 10 µM (MCT8 [2]; labeled T4 10 nm, inhibitor 10 μM, MCT8 cRNA-injected oocytes, read-out: % inhibition ± SEM of uptake of T4): 69 ± 7% | inhibition at 10 µM (MCT8 [2]; read-out: % inhibition ± SEM of uptake of T3): 26 ± 7% | Inhibition of labeled T4 and T3 uptake by MCT8 (in words) (MCT8 [2]; unlabeled competitor, taurocholate and probenecid data not shown): potently inhibited | Substrate specificity: transport by MCT8 (in words) (MCT8 [3]; 10 nM iodothyronines or amino acids, MCT8 cRNA-injected vs uninjected oocytes): rapid uptake | Uptake into oocytes at 4 C (in words) (MCT8 [3]; 10 nM, 2 min, 4 C, marked increases at 15, 25 and 37 C): significant uptake | Na+ dependence of transport by MCT8 (MCT8 [3]; NaCl replaced by choline chloride): modest but consistent inhibition | Increase in initial uptake compared with uninjected oocytes (MCT8 [3]; oocytes injected with 4.6 ng MCT8 cRNA, 10 nM ligand, 25 C): ~10 fold | Increase in transport at lowest amount of MCT8 cRNA (MCT8 [4]): 7.3 fold

From patent US20050159352A1, “Use of monocarboxylate transporter protein for thyroid hormone transport” (priority 2002, published 2005)
